Measured values from the supplement of paper PMC9663587.

Assays:
Etoposide = compound: COc1cc([C@@H]2c3cc4c(cc3[C@@H](O[C@@H]3O[C@@H]5CO[C@@H](C)O[C@H]5[C@H](O)[C@H]3O)[C@H]3COC(=O)[C@H]23)OCO4)cc(OC)c1O [Etoposide]
Buparlisib/NVP-BKM120 = compound: Nc1cc(C(F)(F)F)c(-c2cc(N3CCOCC3)nc(N3CCOCC3)n2)cn1 [Buparlisib/NVP-BKM120]
[1] = compound: Cc1nn(C)c(COc2ccc(N3CCN(S(=O)(=O)N(C)C)CC3)cc2)c1-c1cccc2c(CCCOc3cccc4ccccc34)c(C(=O)O)n(CCN3CCOCC3)c12
YKL-5-124 = compound: C=CC(=O)Nc1ccc(C(=O)Nc2[nH]nc3c2CN(C(=O)N[C@H](CN(C)C)c2ccccc2)C3(C)C)cc1 [YKL-5-124]
Bleomycin = compound: CC1=C(N=C(N=C1N)[C@H](CC(=O)N)NC[C@@H](C(=O)N)N)C(=O)N[C@@H]([C@H](C2=CN=CN2)OC3C(C(C(C(O3)CO)O)O)OC4C(C(C(C(O4)CO)O)OC(=O)N)O)C(=O)N[C@H](C)[C@H]([C@H](C)C(=O)N[C@@H]([C@@H](C)O)C(=O)NCCC5=NC(=CS5)C6=NC(=CS6)C(=O)NCCC[S+](C)C)O [Bleomycin]; conditions: main component drawn
BVD523 = compound: CC(C)Nc1cc(-c2c[nH]c(C(=O)N[C@H](CO)c3cccc(Cl)c3)c2)c(Cl)cn1 [BVD523]
Topotecan = compound: CC[C@@]1(O)C(=O)OCc2c1cc1n(c2=O)Cc2cc3c(CN(C)C)c(O)ccc3nc2-1 [Topotecan]
TGX221 = compound: CC1=CN2C(=O)C=C(N=C2C(=C1)C(C)NC3=CC=CC=C3)N4CCOCC4 [TGX221]
Cisplatin = compound: N.N.Cl[Pt]Cl [Cisplatin]
INK128/MLN0128 = compound: CC(C)n1nc(-c2ccc3oc(N)nc3c2)c2c(N)ncnc21 [INK128/MLN0128]
[2] = compound: CNc1nc(-c2ccc3c(N)n[nH]c3c2)cc(N2C[C@@H](C(=O)NC3CCCCC3)CC[C@H]2C)n1
Everolimus = compound: CO[C@H]1C[C@@H]2CC[C@@H](C)[C@@](O)(O2)C(=O)C(=O)N2CCCC[C@H]2C(=O)O[C@H]([C@H](C)C[C@@H]2CC[C@@H](OCCO)[C@H](OC)C2)CC(=O)[C@H](C)/C=C(\C)[C@@H](O)[C@@H](OC)C(=O)[C@H](C)C[C@H](C)/C=C/C=C/C=C/1C [Everolimus]
[3] = compound: COc1cccc(OCCCN)c1-c1cc(Nc2cnc(C#N)cn2)n[nH]1
FMF-03-145-1 = compound: CCC(=O)Nc1ccc(C(=O)Nc2ccc(Nc3ncc4c(n3)N(C)c3ccc(C)cc3C(=O)N4C)cc2)cc1 [FMF-03-145-1]
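Also: breast cancer and non-malignant breast epithelial cell lines, Deep Dye Drop or Dye Drop imaging, nine half-log doses, GR normalized to time-zero plates and DMSO-only controls.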

| Cell Line | GR50, 72 h (Etoposide) [µM] | GR50, 72 h (Buparlisib/NVP-BKM120) [µM] | GR50, 72 h [1] [µM] | GR50, 72 h (YKL-5-124) [µM] | GR50, 72 h (Bleomycin) [µM] | GR50, 72 h (BVD523) [µM] | GR50, 72 h (Topotecan) [µM] | GR50, 72 h (TGX221) [µM] | GR50, 72 h (Cisplatin) [µM] | GR50, 72 h (INK128/MLN0128) [µM] | GR50, 72 h [2] [µM] | GR50, 72 h (Everolimus) [µM] | GR50, 72 h [3] [µM] | GR50, 72 h (FMF-03-145-1) [µM] |
| --- | --- | --- | --- | --- | --- | --- | --- | --- | --- | --- | --- | --- | --- | --- |
| MCF10A | 0.284 | 1.47 | > 10 | < 0.001 | 0.177 | 1.28 | 0.00987 | > 10 | 4.29 | 0.0242 | > 10 | > 10 | – | – |
| MCF10A (GM) | – | – | – | < 0.001 | – | 1.51 | – | – | – | – | > 10 | – | 0.0122 | 0.00563 |
| MCF12A | – | 2.84 | > 10 | 0.0013 | – | 5.73 | – | > 10 | – | 0.022 | > 10 | > 10 | 0.000725 | 0.00914 |
| MDAMB157 | 0.112 | 1.28 | > 10 | – | 1.29 | – | 0.00595 | > 10 | 5.24 | 0.0318 | – | > 10 | – | – |
| MDAMB175VII | – | 0.102 | > 10 | – | – | 0.255 | – | > 10 | – | 0.00349 | 0.0785 | < 0.001 | 0.0266 | – |
| MDAMB231 | 0.704 | 1.51 | > 10 | < 0.001 | 6.32 | 1.13 | 0.0297 | > 10 | 2.41 | 0.0218 | > 10 | > 10 | 0.000148 | – |
| MDAMB330 | – | 0.511 | > 10 | – | – | 7.45 | – | > 10 | – | 0.00601 | 0.279 | < 0.001 | 0.000237 | – |
| MDAMB361 | 1.19 | 0.218 | > 10 | < 0.001 | 0.758 | 0.476 | 0.0114 | > 10 | 2.63 | 0.00362 | 0.0407 | < 0.001 | 0.000459 | 0.00904 |
| MDAMB415 | – | 1.02 | > 10 | 0.00409 | – | > 10 | – | 1.81 | – | 0.0102 | 1.34 | – | – | – |
| MDAMB436 | 0.26 | 1.18 | > 10 | 0.0324 | 0.855 | > 10 | 0.00594 | > 10 | 0.417 | 0.0241 | > 10 | > 10 | 0.000612 | 0.00578 |
| MDAMB453 | 0.383 | 0.694 | > 10 | < 0.001 | 1.31 | 7.79 | 0.00669 | > 10 | 3.4 | 0.00996 | 2.12 | – | 0.0005 | 0.00648 |
| MDAMB468 | 0.488 | 0.832 | > 10 | < 0.001 | 0.823 | 1.64 | 0.0158 | > 10 | 1.26 | 0.0235 | > 10 | > 10 | – | 0.00536 |
| MGH312 | – | 0.347 | > 10 | 0.00434 | – | > 10 | – | 0.155 | – | 0.00245 | 0.0356 | < 0.001 | – | – |
| PDX1206 | – | – | – | 0.0811 | – | > 10 | – | – | – | – | 1.86 | – | 0.00357 | – |
| PDX1258 | 0.317 | 1.36 | > 10 | 0.00166 | 0.783 | 4.62 | 0.0135 | > 10 | 2.56 | 0.044 | > 10 | > 10 | 0.000103 | – |
| PDX1328 | 0.805 | 0.528 | > 10 | – | 4 | > 10 | 0.00592 | > 10 | 0.784 | 0.00569 | > 10 | – | 0.000974 | – |
| PDXHCI002 | 0.182 | 1.44 | > 10 | < 0.001 | 1.16 | 4.27 | 0.00665 | > 10 | 1.73 | 0.169 | > 10 | > 10 | – | – |
| SKBR3 | 0.398 | 0.14 | > 10 | < 0.001 | 1.05 | 6.46 | 0.0165 | > 10 | 5.11 | 0.00265 | 2.11 | < 0.001 | 0.000441 | 0.00508 |
| SUM44PE | – | 0.412 | 3.31 | – | – | 2.7 | – | > 10 | – | 0.0102 | 4.21 | < 0.001 | 0.000342 | – |
| SUM52PE | – | 0.738 | 8.59 | 0.0453 | – | 5.04 | – | > 10 | – | 0.0172 | 8.3 | > 10 | 0.00264 | – |
| SUM185PE | – | 0.659 | > 10 | 0.0819 | – | > 10 | – | > 10 | – | 0.00558 | > 10 | > 10 | – | – |
| SUM190PT | – | 1.04 | 6.86 | < 0.001 | – | 3.33 | – | > 10 | – | 0.0134 | 2.22 | 0.00331 | 0.00042 | – |
| SUM229PE | – | 1.27 | > 10 | < 0.001 | – | 1.6 | – | > 10 | – | 0.047 | > 10 | > 10 | 0.00707 | – |
| SUM1315 | 0.29 | 0.402 | > 10 | 0.0168 | 0.214 | 6 | 0.0118 | > 10 | 1.28 | 0.00659 | 3.85 | – | 0.000483 | 0.0047 |
| T47D | 0.0417 | 0.248 | > 10 | < 0.001 | 0.199 | 3.63 | 0.00523 | > 10 | 1.57 | 0.00526 | 0.48 | < 0.001 | – | – |
| UACC812 | – | 0.0515 | > 10 | < 0.001 | – | 1.32 | – | 0.0345 | – | 0.0021 | 0.884 | – | – | 0.00186 |
| UACC893 | – | 0.271 | > 10 | 0.00386 | – | 0.868 | – | > 10 | – | 0.00694 | 4.83 | – | 0.0579 | – |
| ZR751 | – | 1.15 | > 10 | 0.0019 | – | > 10 | – | 0.371 | – | 0.00782 | 5.91 | < 0.001 | 0.0012 | 0.00573 |
| ZR7530 | – | 0.534 | > 10 | – | – | > 10 | – | > 10 | – | 0.0153 | – | – | – | – |
